Reference: US10046001B2, “Compositions and methods for reducing intraocular pressure” (UNIVERSITY OF MIAMI, priority 2013, dated 2018)

Assays:
[1] = tested on: assembled layers of primary TM cells; assay: fluorescein transport across assembled layers of primary TM cells in Using type chamber; format: cell-based, human; details: 10 pmole lipid, transport at 15 seconds
Description: A pentalayer of cells were casted on a PVDF filter of 0.45 μm pore size with second to fourth layer topped with rat collagen. Control (without lipid treatment) or with 10 pmole of indicated lipid treated cells were used for these measurements. The transport of flourescein at 15 seconds from the opposite end after introduction of sample at one was estimated. Mean and standard deviation from three independent experiments have been presented. The relative transport has been divided into two zones (marked in yellow), that when the transport is above 0.48 but less than 0.62=1; and above 0.62=2 as indicated.
The transport of fluorescein across cell assembled layered TM cells was determined in an Using type chamber (FIG. 4). The five layers of primary TM cells with collagen matrix in between layers after the first layer were laid on a sterile PVDF membrane (0.45 μm pores). The fluorescein was introduced from one side of the port (the cellular side) and was sampled from another side (the membrane side) within 15 seconds of introduction. Differences in transport between the cell only control and cell treated with lipids for 1-3 hours prior to forming multi-layers (FIG. 4) was observed. The fluorescein transport was quantized and divided into two categories (marked with yellow zones) as 1 and 2 (FIG. 4).
Using type chamber experiments: An Using type chamber (cat #USS1L, World Precision Instrument, Inc.) was used to measure fluorescein flow (sodium fluorescein dye) across the PVDF membrane (cat #75696E Pall Life Sciences, Pensacola Fla.). Trabecular meshwork cells were cultured as described above on the PVDF membrane. Before plating the cells a layer of collagen matrix (Rat Tail Collagen, cat #BD 354249) was formed on the membrane to facilitate the adherence of TM cells to the membrane. The cells were allowed to form a confluent monolayer over a period of 16-24 hours and then another layer of cells was plated on this monolayer. This process was repeated to ultimately achieve a confluent tri-layer of cells. The cells were transfected with DNA of interest [TREK-1+cochlin, TREK-1 and RPE65, TREK-1, transfection agent (Lipofectamine 2000) (Invitrogen)] or left untransfected. 24-36 hours post transfection the membranes were placed between the hemi-chambers of the apparatus connected to a peristaltic pump creating flow across the membrane bathing in 1× DPBS. To measure the flow across the membrane, sodium flourescein dye was used (1:100 dilution of 1 mg/ml). The dye was introduced in one hemi-chamber and equal amounts (100 μl) were aspirated from the other hemi-chamber at 5 minutes post-injection. The fluorescein intensity was measured using the spectrophotometer.

[2] = tested on: trabecular meshwork (TM) primary cells; assay: mobility and cell shape changes of primary TM cells exposed to lipids (time-lapse imaging); format: cell-based, human; details: for mobility and cell shape changes for trabecular meshwork (TM) primary cells due to exposure to lipids: 10 pmoles of lipid; for dynamics of filopodia formation: exposure to lipids vs vehicle
Experimental: FIGS. 2A and 2B show representative images of the effect of lipid on trabecular meshwork primary cells. The time lapsed images of cell at indicated time interval. A. The control TM cells were subjected to vehicle (5% DMSO) in phosphate buffered saline. […] A protrusion of filopodia in a cell is indicated by thick arrow head. At 2 minutes after addition of vehicle to 16 minutes, the protrusion remains unchanged. B. TM cells treated with 10 pmoles of lipid. Most cells have protrusions with only a few cells without them. The filopodia in lipid treated cells are dynamic, they undergo dynamic retraction starting at 1 or 2 minutes after addition of lipid in the serum free media, indicated by arrows. At 16 minutes filopodia are largely retracted.
Modulation of cell motility and shape. Compared to controls (vehicle-10% DMSO only treated) shape of primary TM cells (FIG. 2A), exposure to lipids changed the shape of cells promoting filopodia and motility (FIG. 2B). All these lipids promote contraction of filopodia (FIG. 2B, arrows) and well as expansion. These images were derived from time lapsed video imaging of primary TM cells and summary data from several donor derived cells. The exposure to lipids render the cells more dynamic with respect to filopodia formation and their dynamic expansion-contraction (Summarized in Table 1 (FIG. 11)). The motility and filopodia formation is affected by a variety of intrinsic and extrinsic factors such as age of the donors from where cell have been derived, cell density, composition of the medium, environmental temperature and incubation gas composition. The age of the donor and cell density are the most prominent factors.
TM cell culture experiments: Primary human TM cells were cultured from cadaveric corneo-scleral sections. The cells were isolated through a blunt dissection of the area containing and adjacent to the canal of Schlemm, followed by a 2 hour digestion in DPBS (cat #21-030-CV, Mediatech Inc, Manassas, Va.) suspension of 20% 0.01 μg/μL collagenase-A (cat #LS004194, Worthington, Lakewood N.J.). The blunt dissection and the proteolytic treatment were performed inside a 12 well culture plate (cat #665-180 Greiner Bio-One, Neuburg, Germany). Culture media containing [DMEM 1× (cat #10-017-CM, Mediatech Inc), 10% heat inactivated FBS (cat #35-016-CV, Mediatech), 0.5% 1.7 mM L-Glutamine (cat #G6392, Sigma-Aldrich), 1% Antibiotic-Antimycotic Solution (cat #30-004-CL, Mediatech)] was added after 2 hours to terminate digestion. A sterile microscopy slide (cat #56700-194, VMR) was placed on top of the tissue fragment to ensure bottom-contact and immobility inside the media well. The sections were cultured at 37° C. in 5% CO2 inside a cell culture incubator. Culture was washed with 1× DPBS 7 days later to remove tissue debris; media change occurred every 3-4 days. Thus obtained cells were trypsin-treated (cat #25-050-C1, Mediatech) and accordingly distributed the day before the transfection complexes were created using the ratio of 0.4 μg/uL of respective vector DNA to the transfection agent (Lipofectamine 2000, cat #11668-019, Invitrogen), prepared accordingly to the manufacturer's instructions Following addition to respective wells, the transfection reactions were allowed to take place over a 2.5 hour span, after which they were terminated through the addition of cell culture media. Cell assays and immunohistochemical analysis were performed at or within a 24 hour time mark in order to observe and track the effects of vector expression on morphological changes. Time-lapse microscopy was performed using cells grown on glass bottom chamber slides (cat #154534, Lab-Tek, Thermo Fisher Scientific Inc., Rochester N.Y.) and Zeiss AxioVert 200M, for the duration of 20 hours, with a snapshot every 15 minutes, starting at 24 hours post-transfection. Immunohistochemical analysis was performed on cells fixed with 4% PFA (cat #19943, USB Corp, Cleveland, Ohio) at time intervals of 0, 24, and 29 hours post-transfection. […]

Row | SMILES | transport of fluorescein in assembled layers of primary TM cells [1] | mobility and cell shape changes for trabecular meshwork (TM) primary cells due to exposure to lipids [2] | dynamics of filopodia formation [2]
1 | CCCCCCCCCCCCCC[C@@H](O)[C@@H](N)COP(=O)(O)O [C17 Sphinganine-1-phosphate] | showed an effect | showed an effect | 
2 | CCCCCCCC/C=C\CCCCCCCC(=O)N[C@@H](CO)[C@H](O)CCCCCCCCCCCCCCC [Cer(d18:0/18:1(9Z))] | showed an effect | showed an effect | 
3 | CCCCCCCC/C=C\CCCCCCCCCCCCCCCC(=O)N[C@@H](CO)[C@H](O)/C=C/CCCCCCCCCCCCC [Cer(d18:1/26:1(17Z))] | showed an effect | showed an effect | 
4 | CCCC/C=C\CCCCCCCC(=O)O[C@H](COC(=O)CCCCCCCCCCC)COP(=O)([O-])OCC[N+](C)(C)C [PC(12:0/14:1(9Z))] | lack of any effect | lack of any effect | exception
5 | CCCCCCCCCCCCC(=O)OC[C@H](COP(=O)([O-])OCC[N+](C)(C)C)OC(=O)CCCCCCCCCCCC [PC(13:0/13:0), 1,2-ditridecanoyl-sn-glycero-3-phosphocholine, reference compound] | lack of any effect | lack of any effect | exception
6 | CCCCCCCCCCCCCCCCCC(=O)OC[C@H](COP(=O)(O)OCCN)OC(=O)CCCCCCCCCCCCCCCCC [PE(18:0/18:0)] | showed an effect | showed an effect | 
7 | CCCC/C=C\C/C=C\CCCCCCCC(=O)O[C@H](COC(=O)CCCCCCCCCCC)COP(=O)(O)OC1C(O)C(O)C(O)[C@@H](O)C1O (some centres unmarked) [PI(12:0/17:2)9Z,12Z))] | showed an effect | showed an effect | 
8 | CCCCC/C=C\C/C=C\C/C=C\C/C=C\CCCC(=O)O[C@H](COC(=O)CCCCCCCCCCCCCCCCC)COP(=O)(O)OC1[C@H](O)[C@H](O)C(O)[C@H](O)[C@H]1O (some centres unmarked) [PI(18:0/20:4)5Z,8Z,11Z,14Z))] | showed an effect | showed an effect | 
9 | CCCCCCCCCCCCCC(=O)OC[C@@H](O)COP(=O)(O)OC[C@H](N)C(=O)O [PS(14:0/0:0)] | showed an effect | showed an effect | 
10 | CCCCCCCCCCCCCCCCCC(=O)OC[C@@H](O)COP(=O)(O)OC[C@H](N)C(=O)O [PS(18:0/0:0)] | showed an effect | showed an effect | 
11 | CCCCCCCCCCC/C=C/[C@@H](O)[C@H](COP(=O)([O-])OCC[N+](C)(C)C)NC(=O)CCCCCCCCCCCCCCCCCCCCCCCC [SM(d16:1/25:0)] | showed an effect | showed an effect | 
12 | CCCCCCCCCCCCCCC[C@@H](O)[C@@H](N)CO [Sphinganine] | showed an effect | showed an effect | 
